We go through 9 molecules from US9745335B2 (Blirt S.A., priority 2012, dated 2017).

Where two headings read alike, the source gives them in different places. Some results are limits rather than exact numbers.

Format in all cases: cell-based
Data set [1] concerns Human erythrocytes. Put plainly: hemotoxicity determination (hemolytic activity). The method, then:
The hemotoxicity determination was carried out by the serial dilutions method, according to the procedure described earlier (Slisz, M., et al., E., J Antibiot 57: 669-678 (2004). Human erythrocytes were suspended in the solution of saline to obtain a cell density of suspension 2×10^7/ml. Suitable amounts of diluted solutions of compounds were added to the cell suspension in tubes and were incubated at 37° C. for 30 minutes and then centrifuged (1700×g, 10 min, 4° C.). The concentration of hemoglobin in supernatant after centrifugation of erythrocytes suspension were determined by measuring the absorbance at wavelength λ=540 nm (A540). The maximum level of hemolysis was obtained after incubation of cells suspension in the presence of 0.1% Tritone X-100 (control sample). […] From these graphs, the EH50 values were read which are the interpolated concentrations of compound, for which the A540 value is exactly 50% of the A540 value measured for the control sample.

In data set [2] the test system is Candida lusitaniae DSM 70102. Put plainly: antifungal activity in vitro, serial dilution in RPMI 1640. As to the method: (§1) For the determination of antifungal activity in vitro we used method of serial dilution in buffered medium RPMI 1640, pH 7.0, in a 96-wells microplates, according to the standard procedure (National Committee for Clinical Laboratory Standards. Reference method for broth dilution antifungal susceptibility testing of yeast, approved standard, 2nd ed. M27-A2 vol. 22 Wayne, Pa., 2002). The optical density of cells suspension was measured using a microplates reader (Victor^3, Perkin-Elmer) at the wavelength λ=531 nm (A531). On the basis of obtained results the diagrams of relation between A531 values and concentration of examined compound were made.

Data set [3] deals with Saccharomyces cerevisiae ATCC 9763. Described as above. The settings on record: RPMI 1640, pH 7.0; for Antifungal activity IC50: Saccharomyces cerevisiae ATCC 9763 (first head over MIC and IC50); for Antifungal activity MIC: Saccharomyces cerevisiae ATCC 9763. As to the method:
as §1

Data set [4] relates to Candida krusei DSM 6128. Described as above. As to the method:
as §1

The test system of data set [5] is Candida tropicalis KKP 334. Described as above. As to the method: as §1
Data set [6] relates to Candida glabrata DSM 11226. The description is as above. As to the method:
as §1

Data set [7] concerns Candida albicans ATCC 10231. Described as above. The method, then: as §1

As to `Cc1cc(C)c(N2C(=O)CC(N[C@@H]3[C@H](O)[C@H](O[C@H]4/C=C/C=C/C=C/C=C/C=C/C=C/C=C/[C@H](C)[C@@H](O)[C@@H](C)[C@H](C)OC(=O)C[C@H](O)C[C@H](O)CC[C@@H](O)[C@H](O)C[C@H](O)C[C@]5(O)C[C@H](O)[C@@H](C(=O)O)[C@H](C4)O5)O[C@H](C)[C@H]3O)C2=O)c(C)c1` (stereo partly drawn) [Compound A1, N—[N-(2,4,6-trimethylphenyl)succinimidyl]amphotericin B], the “Hemotoxi EH50” value in data set [1] is over 100 µg/mL. Besides, the “Antifungal activity MIC” value in data set [2] worked out at 2 µg/mL; in data set [3], 2 µg/mL; in data set [4], 8 µg/mL; in data set [5], 4 µg/mL; in data set [6], 8 µg/mL; in data set [7], 4 µg/mL. Moreover, the “Antifungal activity IC50” value in data set [3] turned out to be 0.98 µg/mL.
On to `C[C@@H]1[C@H](O)[C@@H](C)/C=C/C=C/C=C/C=C/C=C/C=C/C=C/[C@H](O[C@@H]2O[C@H](C)[C@@H](O)[C@H](NC3CC(=O)N(Cc4ccccc4)C3=O)[C@@H]2O)C[C@@H]2O[C@](O)(C[C@@H](O)C[C@@H](O)[C@H](O)CC[C@@H](O)C[C@@H](O)CC(=O)O[C@H]1C)C[C@H](O)[C@H]2C(=O)O` (stereo partly drawn) [Compound A2, N—(N-benzylsuccinimidyl)amphotericin B], for which the “Hemotoxi EH50” value in data set [1] is over 100 µg/mL. The “Antifungal activity MIC” value came out at 2 µg/mL in data set [2]; 4 µg/mL in data set [3]; 8 µg/mL in data set [4]; 4 µg/mL in data set [5]; 8 µg/mL in data set [6]; 4 µg/mL in data set [7]. Further, the “Antifungal activity IC50” value in data set [3] was 2.22 µg/mL.
`C[C@@H]1[C@H](O)[C@@H](C)/C=C/C=C/C=C/C=C/C=C/C=C/C=C/[C@H](O[C@@H]2O[C@H](C)[C@@H](O)[C@H](NC3CC(=O)N(c4ccc(Br)cc4)C3=O)[C@@H]2O)C[C@@H]2O[C@](O)(C[C@@H](O)C[C@@H](O)[C@H](O)CC[C@@H](O)C[C@@H](O)CC(=O)O[C@H]1C)C[C@H](O)[C@H]2C(=O)O` (stereo partly drawn) [Compound A3, N—[N-(4-bromophenyl)succinimidyl]amphotericin B]: the “Hemotoxi EH50” value in data set [1] was over 100 µg/mL. In addition, the “Antifungal activity MIC” value in data set [2] was found to be 4 µg/mL; in data set [3], 4 µg/mL; in data set [4], 8 µg/mL; in data set [5] it was 4 µg/mL; in data set [6] it was 8 µg/mL; in data set [7], 4 µg/mL. Further, the “Antifungal activity IC50” value in data set [3] is 2.85 µg/mL.
In the case of `C[C@@H]1[C@H](O)[C@@H](C)/C=C/C=C/C=C/C=C/C=C/C=C/C=C/[C@H](O[C@@H]2O[C@H](C)[C@@H](O)[C@H](NC3CC(=O)N(c4ccccc4C(C)(C)C)C3=O)[C@@H]2O)C[C@@H]2O[C@](O)(C[C@@H](O)C[C@@H](O)[C@H](O)CC[C@@H](O)C[C@@H](O)CC(=O)O[C@H]1C)C[C@H](O)[C@H]2C(=O)O` (stereo partly drawn) [Compound A4, N—[N-(2-tert-butylophenyl)succinimidyl]amphotericin B], the “Hemotoxi EH50” value in data set [1] is over 100 µg/mL. Moreover, the “Antifungal activity MIC” value turned out to be 4 µg/mL in data set [2]; 4 µg/mL in data set [3]; 8 µg/mL in data set [4]; 4 µg/mL in data set [5]; 8 µg/mL in data set [6]; 4 µg/mL in data set [7]. For the same molecule, the “Antifungal activity IC50” value in data set [3] is 3.11 µg/mL.
Take `C[C@@H]1[C@H](O)[C@@H](C)/C=C/C=C/C=C/C=C/C=C/C=C/C=C/[C@H](O[C@@H]2O[C@H](C)[C@@H](O)[C@H](NC3CC(=O)N(c4ccc([N+](=O)[O-])cc4)C3=O)[C@@H]2O)C[C@@H]2O[C@](O)(C[C@@H](O)C[C@@H](O)[C@H](O)CC[C@@H](O)C[C@@H](O)CC(=O)O[C@H]1C)C[C@H](O)[C@H]2C(=O)O` (stereo partly drawn) [Compound A5, N—[N-(4-nitrophenyl)succinimidyl]amphotericin B]: the “Hemotoxi EH50” value in data set [1] is over 100 µg/mL. Moreover, the “Antifungal activity MIC” value in data set [2] came to 2 µg/mL; in data set [3] it was 4 µg/mL; in data set [4], 4 µg/mL; in data set [5] it was 4 µg/mL; in data set [6], 4 µg/mL; in data set [7], 4 µg/mL. Besides, the “Antifungal activity IC50” value in data set [3] was 1.94 µg/mL.
For `C[C@@H]1[C@H](O)[C@@H](C)/C=C/C=C/C=C/C=C/C=C/C=C/C=C/[C@H](O[C@@H]2O[C@H](C)[C@@H](O)[C@H](NC3CC(=O)N(CC(C)(C)CN(C)C)C3=O)[C@@H]2O)C[C@@H]2O[C@](O)(C[C@@H](O)C[C@@H](O)[C@H](O)CC[C@@H](O)C[C@@H](O)CC(=O)O[C@H]1C)C[C@H](O)[C@H]2C(=O)O` (stereo partly drawn) [Compound A7, N-{N-[3-(N,N-dimethylamino)-2,2-dimethylpropyl]succinimidyl}amphotericin B], in data set [1], the “Hemotoxi EH50” value is over 100 µg/mL. Moreover, the “Antifungal activity MIC” value in data set [2] is 1 µg/mL; in data set [3] it was 2 µg/mL; in data set [4], 4 µg/mL; in data set [5], 2 µg/mL; in data set [6], 4 µg/mL; in data set [7] it was 4 µg/mL. For the same molecule, the “Antifungal activity IC50” value in data set [3] was determined as 0.70 µg/mL.
As for `C[C@@H]1[C@H](O)[C@@H](C)/C=C/C=C/C=C/C=C/C=C/C=C/C=C/[C@H](O[C@@H]2O[C@H](C)[C@@H](O)[C@H](NC3CC(=O)N(CCO)C3=O)[C@@H]2O)C[C@@H]2O[C@](O)(C[C@@H](O)C[C@@H](O)[C@H](O)CC[C@@H](O)C[C@@H](O)CC(=O)O[C@H]1C)C[C@H](O)[C@H]2C(=O)O` (stereo partly drawn) [Compound A8, N—[N-(2-hydroxyethyl)succinimidyl]amphotericin B], the “Hemotoxi EH50” value in data set [1] is over 100 µg/mL. For the same molecule, the “Antifungal activity MIC” value is 4 µg/mL in data set [2]; 4 µg/mL in data set [3]; 8 µg/mL in data set [4]; 4 µg/mL in data set [5]; 8 µg/mL in data set [6]; 4 µg/mL in data set [7]. Besides, in data set [3], the “Antifungal activity IC50” value was 1.36 µg/mL.
For `C[C@@H]1[C@H](O)[C@@H](C)/C=C/C=C/C=C/C=C/C=C/C=C/C=C/[C@H](O[C@@H]2O[C@H](C)[C@@H](O)[C@H](NCc3ccc(-c4ccccc4)cc3)[C@@H]2O)C[C@@H]2O[C@](O)(C[C@@H](O)C[C@@H](O)[C@H](O)CC[C@@H](O)C[C@@H](O)CC(=O)O[C@H]1C)C[C@H](O)[C@H]2C(=O)O` [Compound A20, N-[(4-biphenyl)methyl]amphotericin B], in data set [1] (human erythrocytes, 37° C., 30 minutes), the “Hemotoxi EH50” value is over 100 µg/mL. Besides, the “Antifungal activity MIC” value in data set [2], in data set [3], in data set [4], in data set [5], in data set [6] and in data set [7] was 4 µg/mL each time. For the same molecule, the “Antifungal activity IC50” value in data set [3] amounted to 1.63 µg/mL.
In the case of `C[C@@H]1[C@H](O)[C@@H](C)/C=C/C=C/C=C/C=C/C=C/C=C/C=C/[C@H](O[C@@H]2O[C@H](C)[C@@H](O)[C@H](NCc3ccc(C(C)(C)C)cc3)[C@@H]2O)C[C@@H]2O[C@](O)(C[C@@H](O)C[C@@H](O)[C@H](O)CC[C@@H](O)C[C@@H](O)CC(=O)O[C@H]1C)C[C@H](O)[C@H]2C(=O)O` [Compound A21, N-(4-tert-butylbenzyl)amphotericin B], the “Hemotoxi EH50” value in data set [1] is over 100 µg/mL. For the same molecule, the “Antifungal activity MIC” value came to 2 µg/mL in data set [2]; 4 µg/mL in data set [3]; 4 µg/mL in data set [4]; 4 µg/mL in data set [5]; 4 µg/mL in data set [6]; 4 µg/mL in data set [7]. Moreover, in data set [3], the “Antifungal activity IC50” value came out at 1.58 µg/mL.
